Reference: US20150307520A1, “NOVEL HETEROARYL AND HETEROCYCLE COMPOUNDS, COMPOSITIONS AND METHODS THEREOF” (HUTCHISON MEDIPHARMA LIMITED, priority 2012, published 2015)

Legend:
Assay type in all cases: biochemical
p110β/p85α = p110β/p85α (Homo sapiens, UniProt P42338); experiment: Transcreener KINASE Assay, kinase inhibition of p110β/p85α; details: for PI3Kβ IH % @ 1 uM: 1 uM test compound; for IC50: read-out: PI3Kβ IC50
Method in brief: (§1)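 Steps: compound (2% DMSO final) plus enzyme in HEPES/NaCl/EGTA/CHAPS/3 mM MgCl2/1 mM DTT buffer; start with PIP2/ATP addition (30 uM/10 uM solution); 80 min RT; add ADP detection mix, 60 min RT; read fluorescence polarization.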

p110δ/p85α = p110δ/p85α (Homo sapiens, UniProt O00329); experiment: Transcreener KINASE Assay, kinase inhibition of p110δ/p85α; details: for PI3Kδ IH % @ 1 uM: 1 uM test compound; for IC50: read-out: PI3Kδ IC50
Chain of p110δ/p85α (O00329 whole entry): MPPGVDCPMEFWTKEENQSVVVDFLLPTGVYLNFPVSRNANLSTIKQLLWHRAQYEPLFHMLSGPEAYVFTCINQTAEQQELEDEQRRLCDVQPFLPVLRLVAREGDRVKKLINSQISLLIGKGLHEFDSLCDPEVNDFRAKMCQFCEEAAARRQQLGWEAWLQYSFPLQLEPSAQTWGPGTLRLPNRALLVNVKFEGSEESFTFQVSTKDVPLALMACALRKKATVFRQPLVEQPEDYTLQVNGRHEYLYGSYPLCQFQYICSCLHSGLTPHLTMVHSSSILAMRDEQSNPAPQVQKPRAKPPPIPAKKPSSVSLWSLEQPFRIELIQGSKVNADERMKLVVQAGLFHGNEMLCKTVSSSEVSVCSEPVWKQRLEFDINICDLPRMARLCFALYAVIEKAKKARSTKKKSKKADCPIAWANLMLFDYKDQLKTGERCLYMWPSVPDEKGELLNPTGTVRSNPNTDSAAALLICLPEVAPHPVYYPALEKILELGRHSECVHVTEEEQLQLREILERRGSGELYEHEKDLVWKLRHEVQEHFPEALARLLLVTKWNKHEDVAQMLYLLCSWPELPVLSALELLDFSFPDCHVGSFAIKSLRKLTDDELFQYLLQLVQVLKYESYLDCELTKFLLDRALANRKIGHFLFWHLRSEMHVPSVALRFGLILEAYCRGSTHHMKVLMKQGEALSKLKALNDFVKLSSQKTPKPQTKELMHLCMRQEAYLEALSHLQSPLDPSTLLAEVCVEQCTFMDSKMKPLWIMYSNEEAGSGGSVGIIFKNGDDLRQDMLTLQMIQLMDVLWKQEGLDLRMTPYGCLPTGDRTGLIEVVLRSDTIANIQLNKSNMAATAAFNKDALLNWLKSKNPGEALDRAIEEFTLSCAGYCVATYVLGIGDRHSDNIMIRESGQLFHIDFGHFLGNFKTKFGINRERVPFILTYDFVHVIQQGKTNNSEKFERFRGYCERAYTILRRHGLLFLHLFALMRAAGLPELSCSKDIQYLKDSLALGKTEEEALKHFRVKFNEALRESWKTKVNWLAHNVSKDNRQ
Chain of p110δ/p85α (P27986 whole entry partner): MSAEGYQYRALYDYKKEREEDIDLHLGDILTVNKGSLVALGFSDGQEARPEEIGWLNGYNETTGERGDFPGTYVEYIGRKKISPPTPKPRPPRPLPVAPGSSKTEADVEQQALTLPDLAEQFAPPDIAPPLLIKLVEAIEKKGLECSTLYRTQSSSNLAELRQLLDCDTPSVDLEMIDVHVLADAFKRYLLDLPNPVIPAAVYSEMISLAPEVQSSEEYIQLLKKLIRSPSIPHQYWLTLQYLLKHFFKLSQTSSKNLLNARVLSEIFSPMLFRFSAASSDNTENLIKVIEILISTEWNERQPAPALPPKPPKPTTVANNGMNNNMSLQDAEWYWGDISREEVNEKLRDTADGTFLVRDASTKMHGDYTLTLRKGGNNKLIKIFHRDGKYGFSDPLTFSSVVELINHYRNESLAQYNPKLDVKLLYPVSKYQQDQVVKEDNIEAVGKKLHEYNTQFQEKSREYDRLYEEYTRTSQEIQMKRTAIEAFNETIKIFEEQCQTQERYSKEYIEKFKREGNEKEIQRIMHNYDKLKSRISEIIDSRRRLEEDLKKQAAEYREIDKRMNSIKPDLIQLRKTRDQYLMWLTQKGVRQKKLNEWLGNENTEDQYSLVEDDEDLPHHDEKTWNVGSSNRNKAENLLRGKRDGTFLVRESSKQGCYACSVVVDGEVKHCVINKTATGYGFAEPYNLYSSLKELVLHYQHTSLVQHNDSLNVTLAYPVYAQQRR
Method in brief: as §1

p110γ = p110γ (Homo sapiens, UniProt P48736); experiment: Transcreener KINASE Assay, kinase inhibition of p110γ; details: for PI3Kγ IH % @ 1 uM: 1 uM test compound; for IC50: read-out: PI3Kγ IC50
Chain of p110γ (P48736 whole entry, canonical isoform): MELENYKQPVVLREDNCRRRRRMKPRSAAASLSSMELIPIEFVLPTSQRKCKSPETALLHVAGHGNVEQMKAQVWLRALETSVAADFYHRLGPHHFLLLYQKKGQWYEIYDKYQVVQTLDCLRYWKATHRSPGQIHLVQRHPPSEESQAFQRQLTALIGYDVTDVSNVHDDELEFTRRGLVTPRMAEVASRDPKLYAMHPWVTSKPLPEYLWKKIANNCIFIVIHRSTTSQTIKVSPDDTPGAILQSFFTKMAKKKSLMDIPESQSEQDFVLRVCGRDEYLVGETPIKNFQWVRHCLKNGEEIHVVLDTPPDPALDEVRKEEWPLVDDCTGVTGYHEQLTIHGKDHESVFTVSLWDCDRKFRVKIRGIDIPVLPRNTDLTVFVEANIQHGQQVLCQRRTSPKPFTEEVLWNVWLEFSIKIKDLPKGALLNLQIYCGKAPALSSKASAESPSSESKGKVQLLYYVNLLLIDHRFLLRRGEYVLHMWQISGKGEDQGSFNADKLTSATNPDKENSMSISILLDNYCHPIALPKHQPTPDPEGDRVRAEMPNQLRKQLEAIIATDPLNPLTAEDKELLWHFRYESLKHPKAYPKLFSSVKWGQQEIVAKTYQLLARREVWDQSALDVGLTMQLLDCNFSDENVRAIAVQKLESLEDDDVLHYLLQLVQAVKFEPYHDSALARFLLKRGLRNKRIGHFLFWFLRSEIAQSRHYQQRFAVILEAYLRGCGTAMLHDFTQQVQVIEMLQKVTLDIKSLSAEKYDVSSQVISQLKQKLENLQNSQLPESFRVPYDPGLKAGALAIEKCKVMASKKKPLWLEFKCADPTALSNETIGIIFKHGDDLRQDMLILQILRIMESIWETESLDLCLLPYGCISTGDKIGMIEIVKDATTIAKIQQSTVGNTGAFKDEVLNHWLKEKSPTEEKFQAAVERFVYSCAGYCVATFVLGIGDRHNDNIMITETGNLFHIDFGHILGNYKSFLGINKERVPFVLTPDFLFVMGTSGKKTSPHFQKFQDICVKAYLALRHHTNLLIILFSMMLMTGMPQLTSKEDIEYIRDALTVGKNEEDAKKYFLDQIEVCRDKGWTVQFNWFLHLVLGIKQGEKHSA
Method in brief: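 ADP-detecting fluorescence polarization immunoassay run as two-step endpoint: kinase reaction for 80 min, detection for 60 min, both at room temperature. Enzymes are recombinant p110 isoforms with p85α, except p110γ. IC50s derived from fitted inhibition curves.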

Chain of p110β/p85α (P42338 whole entry): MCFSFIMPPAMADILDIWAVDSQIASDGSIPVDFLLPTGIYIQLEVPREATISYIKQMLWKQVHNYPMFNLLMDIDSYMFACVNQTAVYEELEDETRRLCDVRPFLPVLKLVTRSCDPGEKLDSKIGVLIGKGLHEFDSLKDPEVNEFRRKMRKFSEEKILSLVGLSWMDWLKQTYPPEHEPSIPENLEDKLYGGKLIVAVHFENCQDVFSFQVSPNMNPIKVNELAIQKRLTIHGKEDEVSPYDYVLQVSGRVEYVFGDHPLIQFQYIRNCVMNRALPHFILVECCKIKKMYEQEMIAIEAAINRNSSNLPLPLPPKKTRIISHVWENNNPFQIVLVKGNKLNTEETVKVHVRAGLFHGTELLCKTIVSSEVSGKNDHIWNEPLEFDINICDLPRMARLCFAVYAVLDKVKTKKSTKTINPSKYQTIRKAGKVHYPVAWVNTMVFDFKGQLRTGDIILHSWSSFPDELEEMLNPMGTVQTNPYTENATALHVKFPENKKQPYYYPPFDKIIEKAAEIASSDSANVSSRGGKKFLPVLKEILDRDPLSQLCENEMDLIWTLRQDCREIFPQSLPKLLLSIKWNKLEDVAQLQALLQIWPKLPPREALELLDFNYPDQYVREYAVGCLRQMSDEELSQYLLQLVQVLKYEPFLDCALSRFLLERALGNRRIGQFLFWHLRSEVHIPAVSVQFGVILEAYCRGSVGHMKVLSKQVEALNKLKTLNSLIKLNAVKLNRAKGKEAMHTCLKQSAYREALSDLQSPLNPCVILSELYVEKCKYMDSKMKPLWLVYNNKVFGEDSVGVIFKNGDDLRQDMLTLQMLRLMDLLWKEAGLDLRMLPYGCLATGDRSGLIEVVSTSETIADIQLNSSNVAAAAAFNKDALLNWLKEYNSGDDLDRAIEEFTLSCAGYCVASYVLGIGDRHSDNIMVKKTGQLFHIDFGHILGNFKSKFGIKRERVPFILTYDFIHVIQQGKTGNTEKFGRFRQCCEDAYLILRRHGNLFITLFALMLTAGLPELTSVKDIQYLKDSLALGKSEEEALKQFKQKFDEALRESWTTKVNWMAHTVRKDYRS
Chain of p110β/p85α (P27986 2-724 partner): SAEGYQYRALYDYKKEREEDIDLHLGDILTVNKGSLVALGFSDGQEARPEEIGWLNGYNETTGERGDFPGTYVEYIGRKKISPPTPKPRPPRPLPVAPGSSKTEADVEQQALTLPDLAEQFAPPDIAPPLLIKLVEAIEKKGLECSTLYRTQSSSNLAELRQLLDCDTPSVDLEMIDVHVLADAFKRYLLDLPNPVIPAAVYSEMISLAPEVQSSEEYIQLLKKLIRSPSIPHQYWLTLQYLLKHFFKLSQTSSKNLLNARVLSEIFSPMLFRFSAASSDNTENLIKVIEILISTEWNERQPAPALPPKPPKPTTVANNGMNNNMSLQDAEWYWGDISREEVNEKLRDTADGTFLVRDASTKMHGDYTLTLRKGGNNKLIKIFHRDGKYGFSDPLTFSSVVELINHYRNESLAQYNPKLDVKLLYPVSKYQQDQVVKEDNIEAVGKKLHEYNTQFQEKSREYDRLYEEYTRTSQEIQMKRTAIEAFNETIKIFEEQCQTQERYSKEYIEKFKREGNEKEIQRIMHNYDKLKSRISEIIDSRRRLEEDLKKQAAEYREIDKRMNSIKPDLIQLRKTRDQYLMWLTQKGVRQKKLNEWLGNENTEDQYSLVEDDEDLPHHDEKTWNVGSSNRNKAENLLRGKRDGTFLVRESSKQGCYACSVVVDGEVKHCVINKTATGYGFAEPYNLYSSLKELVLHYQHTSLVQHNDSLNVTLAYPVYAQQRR

Compound	PI3Kβ IH % @ 1 uM (p110β/p85α) [%]	IC50 (p110β/p85α) [µM]	PI3Kδ IH % @ 1 uM (p110δ/p85α) [%]	IC50 (p110δ/p85α) [µM]	PI3Kγ IH % @ 1 uM (p110γ) [%]	IC50 (p110γ) [µM]
CNC(=O)c1c[nH]c2ncnc(N3CCC[C@H]3c3nn4ccc(Cl)c4c(=O)n3-c3ccccc3)c12 [Compound 96]	73.4	0.169	97.3	0.024	94.3	0.071
CN(C)C(=O)c1c[nH]c2ncnc(N3CCC[C@H]3c3nn4ccc(Cl)c4c(=O)n3-c3ccccc3)c12 [Compound 97]	45.1		55.1		84.6	0.144
COc1ncc(-c2c[nH]c3ncnc(N4CC[C@H]4c4nn5ccc(Cl)c5c(=O)n4-c4ccccc4)c23)cn1 [Compound 100]	89.8	0.006	>100	0.001	>100	0.005
COc1ccc(-c2c[nH]c3ncnc(N4CC[C@H]4c4nn5ccc(Cl)c5c(=O)n4-c4ccccc4)c23)cn1 [Compound 102]	92.3	0.061	>100	0.001	>100	0.014
N#Cc1ncc(-c2c[nH]c3ncnc(N4CC[C@H]4c4nn5ccc(Cl)c5c(=O)n4-c4ccccc4)c23)cn1 [Compound 103]	>100	0.046	99.7	0.001	98.2	0.019
Nc1ncc(-c2c[nH]c3ncnc(N4CC[C@H]4c4nn5ccc(Cl)c5c(=O)n4-c4ccccc4)c23)cn1 [Compound 104]	>100	0.017	>100		>100	0.003
C#Cc1ccn2nc([C@@H]3CCN3c3ncnc4[nH]cc(C#N)c34)n(-c3ccccc3)c(=O)c12 [Compound 105, (S)-4-(2-(5-ethynyl-4-oxo-3-phenyl-3,4-dihydropyrrolo[2,1-f][1,2,4]triazin-2-yl)azetidin-1-yl)-7H-pyrrolo[2,3-d]pyrimidine-5-carbonitrile]	16.0		90.0	0.015	90.4	0.08
CC(C)Cn1c([C@@H]2CCCN2c2ncnc3[nH]cc(C#N)c23)nn2c(F)ccc2c1=O [Compound 107, (S)-4-(2-(7-fluoro-3-isobutyl-4-oxo-3,4-dihydropyrrolo[2,1-f][1,2,4]triazin-2-yl)pyrrolidin-1-yl)-7H-pyrrolo[2,3-d]pyrimidine-5-carbonitrile]	34.5		98.6	0.005	71.8	0.153
COc1ccc(-c2c(N)ncnc2N2CC[C@H]2c2nn3ccc(Cl)c3c(=O)n2-c2ccccc2)cn1 [Compound 108, (S)-2-(1-(6-amino-5-(6-methoxypyridin-3-yl)pyrimidin-4-yl)azetidin-2-yl)-5-chloro-3-phenylpyrrolo[2,1-f][1,2,4]triazin-4(3H)-one]	26.9		75.9		90.0	
COc1ccc(-c2n[nH]c3ncnc(N4CCC[C@H]4c4nn5ccc(Cl)c5c(=O)n4-c4ccccc4)c23)cn1 [Compound 109]	61.0		99.8	0.004	98.3	0.192
N#Cc1n[nH]c2ncnc(N3CCC[C@H]3c3nn4ccc(Cl)c4c(=O)n3-c3ccccc3)c12 [Compound 111, (S)-4-(2-(5-chloro-4-oxo-3-phenyl-3,4-dihydropyrrolo[2,1-f][1,2,4]triazin-2-yl)pyrrolidin-1-yl)-1H-pyrazolo[3,4-d]pyrimidine-3-carbonitrile]	39.0		93.9	0.045	67.2	
O=c1c2c(Cl)ccn2nc([C@@H]2CCN2c2nc(N3CCOCC3)nc3[nH]cnc23)n1-c1ccccc1 [Compound 114, (S)-5-chloro-2-(1-(2-morpholino-9H-purin-6-yl)azetidin-2-yl)-3-phenylpyrrolo[2,1-f][1,2,4]triazin-4(3H)-one]	86.4	0.159	93.7	0.027	4.3	
CC(Nc1ncnc2[nH]cnc12)c1cc2ncc(Cl)n2c(=O)n1-c1ccccc1 (centres unmarked) [Compound 115, 7-(1-(9H-purin-6-ylamino)ethyl)-3-chloro-6-phenylimidazo[1,2-c]pyrimidin-5(6H)-one]	80.2	0.143	>100	0.002	91.7	0.003
CC(Nc1ncnc2[nH]cc(C#N)c12)c1cc2ncc(Cl)n2c(=O)n1-c1ccccc1 (centres unmarked) [Compound 116]	>100	0.128	>100	0.005	96.9	0.045
CC(Nc1ncnc(N)c1C#N)c1cc2ncc(Cl)n2c(=O)n1-c1ccccc1 (centres unmarked) [Compound 117]	>100	0.038	>100	0.005	>100	0.043
CC(Nc1ncnc2[nH]cc(C#N)c12)c1cc2ncc(Cl)n2c(=O)n1-c1cccc(F)c1 (centres unmarked) [Compound 118]	19.1		77.5	0.471	5.2	
CC(Nc1ncnc2[nH]cnc12)c1cc2cccn2c(=O)n1-c1ccccc1 (centres unmarked) [Compound 119, 3-(1-(9H-purin-6-ylamino)ethyl)-2-phenylpyrrolo[1,2-c]pyrimidin-1(2H)-one]	47.8		94.3		85.6	0.239
CC(Nc1ncnc(N)c1C#N)c1cc2cccn2c(=O)n1-c1ccccc1 (centres unmarked) [Compound 120]	74.7	0.237	>100		85.9	0.295
CC(Nc1ncnc2[nH]cnc12)c1cc2ccc(Cl)n2c(=O)n1-c1ccccc1 (centres unmarked) [Compound 122, 3-(1-(9H-purin-6-ylamino)ethyl)-7-chloro-2-phenylpyrrolo[1,2-c]pyrimidin-1(2H)-one]	88.3	0.051	>100	0.003	>100	0.008
CC(Nc1ncnc2[nH]cc(C#N)c12)c1cc2ccc(Cl)n2c(=O)n1-c1ccccc1 (centres unmarked) [Compound 124]	95.0	0.022	98.0	0.002	>100	0.012
CC(Nc1ncnc(N)c1C#N)c1cc2ccc(Cl)n2c(=O)n1-c1ccccc1 (centres unmarked) [Compound 125]	95.7	0.006	>100	0.001	94.0	0.003
CC(Nc1ncnc(N)c1C#N)c1cc2c(Cl)cc(Cl)n2c(=O)n1-c1ccccc1 (centres unmarked) [Compound 126]	90.9	0.025	>100	0.001	>100	0.02
CC(Nc1ncnc2[nH]cc(C#N)c12)c1cc2c(Cl)cc(Cl)n2c(=O)n1-c1cccc(F)c1 (centres unmarked) [Compound 129]	17.8		97.8	0.018	33.3	
O=c1c2c(F)ccn2nc([C@@H]2C[C@H](F)CN2c2ncnc3[nH]cnc23)n1-c1ccccc1 [Compound 132, 5-fluoro-2-((2S,4S)-4-fluoro-1-(9H-purin-6-yl)pyrrolidin-2-yl)-3-phenylpyrrolo[2,1-f][1,2,4]triazin-4(3H)-one]	74.5	0.338	>100	0.009	>100	0.07
